From ChEMBL document CHEMBL4130410, “Novel rhynchophylline analogues as microvascular relaxation agents for the treatment of microvascular dysfunction caused by diabetes” (Eur J Med Chem, 2017)
The source made the active and inactive calls. No cut-off for these calls is given here.

Key:
[1] = test system: Thoracic aorta; experiment: Vasorelaxant activity in rat thoracic aorta; type: functional, tissue-based
[2] = test system: Mesenteric artery; experiment: Vasorelaxant activity in Sprague-Dawley rat endothelium intact mesentric artery rings assessed as inhibition of phenylephrine-induced contraction; type: functional, tissue-based
[3] = test system: Mesenteric artery; experiment: Vasorelaxant activity in Sprague-Dawley rat endothelium intact mesentric artery rings assessed as inhibition of KCl-induced contraction; type: functional, tissue-based
[4] = test system: Mesenteric artery; experiment: Vasorelaxant activity in Sprague-Dawley rat endothelium denuded mesentric artery rings assessed as inhibition of phenylephrine-induced contraction; type: functional, tissue-based
[5] = test system: Mesenteric artery; experiment: Vasorelaxant activity in Sprague-Dawley rat endothelium denuded mesentric artery rings assessed as inhibition of KCl-induced contraction; type: functional, tissue-based
[6] = test system: Mesenteric artery; experiment: Vasorelaxant activity in Sprague-Dawley rat endothelium intact mesentric artery rings assessed as inhibition of phenylephrine-induced contraction in presence of non-selective calcium-activated K+ channel blocker TEA/VGCC blocker nifedipine; type: functional, tissue-based
[7] = test system: Mesenteric artery; experiment: Vasorelaxant activity in endothelium intact mesentric artery rings isolated from streptozotocin-induced type-1 diabetic Sprague-Dawley rat model assessed as inhibition of phenylephrine-induced contraction; type: functional, tissue-based
[8] = test system: Rattus norvegicus; experiment: In vivo vasorelaxant activity in streptozotocin-induced type-1 diabetic Sprague-Dawley rat model assessed as increase in acetylcholine-induced endothelium dependent relaxation in mesentric artery rings at 20 mg/kg, po via gavage for 1 week starting from 8 week post diabetic induction; type: functional, organism-based
[9] = test system: Rattus norvegicus; experiment: In vivo vasorelaxant activity in streptozotocin-induced type-1 diabetic Sprague-Dawley rat model assessed as inhibition of phenylephrine-induced contraction in mesentric artery rings at 20 mg/kg, po via gavage for 1 week starting from 8 week post diabetic induction; type: functional, organism-based
[10] = test system: Rattus norvegicus; experiment: (§1) In vivo vasorelaxant activity in streptozotocin-induced type-1 diabetic Sprague-Dawley rat model assessed as protection against eNOS loss in vessels at 20 mg/kg, po via gavage for 1 week starting from 8 week post diabetic induction by hematoxylin and eosin staining based assay; type: functional, organism-based
[11] = test system: Rattus norvegicus; experiment: as §1, with “vessels by measuring increase in eNOS protein expression” for “vessels”, “Western blot method” for “hematoxylin and eosin staining based assay”; type: functional, organism-based
[12] = test system: Mesenteric artery; experiment: Vasorelaxant activity in endothelium intact mesentric artery rings isolated from streptozotocin-induced type-1 diabetic Sprague-Dawley rat model assessed as inhibition of phenylephrine-induced contraction in presence of eNOS inhibitor L-NAME; type: functional, tissue-based
[13] = test system: Mesenteric artery; experiment: Vasorelaxant activity in mesentric artery rings isolated from Sprague-Dawley rat assessed as inhibition of phenylephrine-induced contraction in presence of eNOS inhibitor L-NAME; type: functional, tissue-based
[14] = test system: Thoracic aorta; experiment: Potency index, ratio of rhynchophylline IC50 to compound IC50 for vasorelaxant activity in rat thoracic aorta; type: functional

IC50 [1] | IC50 [2] | IC50 [4] | SMILES | Emax [2] | inhibition [2] | inhibition [3] | Emax [4] | inhibition [5] | inhibition [6] | inhibition [7] | Activity [8] | inhibition [9] | Activity [10] | Activity [11] | inhibition [12] | inhibition [13] | Ratio IC50 [14]
5.89 µM | 0.499 µM | 1.2 µM | COC(=O)CC1CC2c3[nH]c4ccccc4c3CCN2CC1CCO (racemic) | 99.9% | Dose-dependent effect | inactive | 99.7% | inactive | Active | Active | Active | Active | Active | Active | inactive | inactive | <=30
0.199 µM | 0.092 µM | 5.15 µM | COC(=O)C[C@H]1C[C@@H]2c3[nH]c4ccccc4c3CCN2C[C@H]1CCO | 100% | Dose-dependent effect | inactive | 101% | inactive | inactive | Active | – | – | – | – | inactive | inactive | <=30
3.69 µM | 7.79 µM | 49.9 µM | COC(=O)C[C@@H]1C[C@H]2c3[nH]c4ccccc4c3CCN2C[C@@H]1CCO | 99.1% | Dose-dependent effect | inactive | 86.3% | inactive | Active | – | – | – | – | – | inactive | inactive | <=30

SMILES | IC50 [1] | IC50 [2] | IC50 [4] | Emax [2] | inhibition [2] | inhibition [3] | Emax [4] | inhibition [5] | inhibition [6] | inhibition [7] | Activity [8] | inhibition [9] | Activity [10] | Activity [11] | inhibition [12] | inhibition [13] | Ratio IC50 [14]
CC[C@H]1CN2CC[C@]3(C(=O)Nc4ccccc43)[C@@H]2C[C@@H]1/C(=C/OC)C(=O)OC | 174 µM | – | – | – | – | – | – | – | – | – | – | – | – | – | – | – | –
